Measurements from ChEMBL document CHEMBL5230109, “Recent advances in epigenetic proteolysis targeting chimeras (Epi-PROTACs)” (Eur J Med Chem, 2020).
Values belong to the compound of their own block, whether it stands above or below them.

How the values were obtained:
[1] = biological target: Polyamine deacetylase HDAC10 (Homo sapiens, UniProt Q969S8); test: Inhibition of human recombinant His-tagged HDAC10 incubated for 20 mins by HDAC Glo assay
Histone deacetylase 3 = Histone deacetylase 3 (Homo sapiens, UniProt O15379); test: Inhibition of human recombinant HDAC3 incubated for 20 mins by HDAC Glo assay
Histone deacetylase 1 = Histone deacetylase 1 (Homo sapiens, UniProt Q13547); test: Inhibition of human recombinant GST-tagged HDAC1 incubated for 20 mins by HDAC Glo assay
[2] = biological target: Protein deacetylase HDAC6 (Homo sapiens, UniProt Q9UBN7); test: Inhibition of human recombinant GST-tagged HDAC6 incubated for 20 mins by HDAC Glo assay
Histone deacetylase 8 = Histone deacetylase 8 (Homo sapiens, UniProt Q9BY41); test: Inhibition of human recombinant His-tagged HDAC8 incubated for 20 mins by HDAC Glo assay
Histone deacetylase 2 = Histone deacetylase 2 (Homo sapiens, UniProt Q92769); test: Inhibition of human recombinant GST-tagged HDAC2 incubated for 20 mins by HDAC Glo assay
[3] = biological target: T1, von Hippel-Lindau disease tumor suppressor/Transcription intermediary factor 1-alpha (Homo sapiens, UniProt O15164+P40337); test: PROTAC activity at TRIM24/VHL (unknown origin) assessed as degradation protein; assay type: protein assay
[4] = biological target: T1, von Hippel-Lindau disease tumor suppressor/Transcription intermediary factor 1-alpha; test: PROTAC activity at TRIM24/VHL in human HEK293FT cells assessed as degradation protein at 5 uM measured after 24 hrs; assay type: cell-based
Target sequence in this assay (O15164 whole entry, looked up): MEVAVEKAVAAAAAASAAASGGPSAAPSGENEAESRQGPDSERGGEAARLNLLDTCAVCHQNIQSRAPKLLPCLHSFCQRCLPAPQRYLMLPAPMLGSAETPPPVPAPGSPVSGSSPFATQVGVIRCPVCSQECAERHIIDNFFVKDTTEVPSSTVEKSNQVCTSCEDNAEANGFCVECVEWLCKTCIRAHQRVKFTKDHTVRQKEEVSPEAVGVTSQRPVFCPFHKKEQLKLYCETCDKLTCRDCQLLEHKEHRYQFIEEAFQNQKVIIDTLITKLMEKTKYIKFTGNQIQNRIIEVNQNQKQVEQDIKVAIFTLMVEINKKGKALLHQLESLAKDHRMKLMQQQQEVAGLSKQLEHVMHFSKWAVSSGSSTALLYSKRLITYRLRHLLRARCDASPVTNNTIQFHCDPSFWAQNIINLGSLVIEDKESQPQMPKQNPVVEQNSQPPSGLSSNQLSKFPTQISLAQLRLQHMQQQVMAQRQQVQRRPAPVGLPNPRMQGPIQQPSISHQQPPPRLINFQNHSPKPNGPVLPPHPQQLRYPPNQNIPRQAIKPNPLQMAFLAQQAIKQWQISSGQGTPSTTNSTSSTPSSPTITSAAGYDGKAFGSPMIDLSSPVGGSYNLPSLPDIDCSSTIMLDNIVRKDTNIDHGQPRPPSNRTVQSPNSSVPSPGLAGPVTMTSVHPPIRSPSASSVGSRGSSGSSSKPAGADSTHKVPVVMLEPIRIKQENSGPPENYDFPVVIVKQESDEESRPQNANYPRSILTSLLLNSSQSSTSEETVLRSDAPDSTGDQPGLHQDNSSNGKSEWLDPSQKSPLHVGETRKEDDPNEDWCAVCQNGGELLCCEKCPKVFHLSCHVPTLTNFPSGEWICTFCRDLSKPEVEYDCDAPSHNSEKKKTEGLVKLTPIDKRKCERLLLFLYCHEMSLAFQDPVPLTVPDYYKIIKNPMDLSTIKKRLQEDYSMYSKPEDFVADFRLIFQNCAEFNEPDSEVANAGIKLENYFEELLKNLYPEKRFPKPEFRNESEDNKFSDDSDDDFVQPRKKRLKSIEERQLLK
Target sequence in this assay (P40337 whole entry, looked up): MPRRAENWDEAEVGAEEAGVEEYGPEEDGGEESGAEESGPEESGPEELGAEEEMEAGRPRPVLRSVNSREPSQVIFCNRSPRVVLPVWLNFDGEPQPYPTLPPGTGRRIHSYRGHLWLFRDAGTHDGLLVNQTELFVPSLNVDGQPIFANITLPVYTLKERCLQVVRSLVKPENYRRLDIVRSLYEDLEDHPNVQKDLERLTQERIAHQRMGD

[5] = biological target: T1, von Hippel-Lindau disease tumor suppressor/Transcription intermediary factor 1-alpha; test: PROTAC activity at TRIM24/VHL in human MOLM-13 cells assessed as degradation protein at 5 uM measured after 24 hrs; assay type: cell-based
Target sequence in this assay (O15164 whole entry, looked up): as the sequence (O15164 whole entry, looked up) above
Target sequence in this assay (P40337 whole entry, looked up): as the sequence (P40337 whole entry, looked up) above

[6] = Inhibition of PRC2 catalytic core MTase activity (unknown origin) by MTase Glo assay; set-up: species or system Homo sapiens
Polycomb protein EED [7] = biological target: T2, Polycomb protein EED (Homo sapiens, UniProt O75530); test: Binding affinity to PRC2 catalytic core EED (unknown origin) by surface plasmon resonance assay
T2 sequence (O75530 whole entry): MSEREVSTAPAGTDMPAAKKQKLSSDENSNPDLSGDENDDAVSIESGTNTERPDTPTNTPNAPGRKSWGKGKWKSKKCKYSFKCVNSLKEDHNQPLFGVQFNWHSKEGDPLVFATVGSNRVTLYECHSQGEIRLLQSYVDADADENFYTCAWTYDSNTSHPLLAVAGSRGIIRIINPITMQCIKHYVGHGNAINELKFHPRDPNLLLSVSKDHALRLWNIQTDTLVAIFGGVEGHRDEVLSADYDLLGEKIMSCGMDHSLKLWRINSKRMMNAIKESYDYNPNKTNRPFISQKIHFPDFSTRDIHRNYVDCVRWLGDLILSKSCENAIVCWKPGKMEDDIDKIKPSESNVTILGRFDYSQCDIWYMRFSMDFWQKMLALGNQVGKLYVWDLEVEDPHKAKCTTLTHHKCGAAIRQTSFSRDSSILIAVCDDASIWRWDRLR

[8] = biological target: Histone-lysine N-methyltransferase EZH2 (Homo sapiens, UniProt Q15910); test: Inhibition of EZH2 methyltransferase activity (unknown origin) assessed `transfer of [3H]methyl group from SAM to substrate by biochemical assay
[9] = biological target: T3, Protein cereblon/Protein deacetylase HDAC6 (Homo sapiens, UniProt Q96SW2+Q9UBN7); test: PROTAC activity at HDAC6/CRBN in human MM.1S cells measured after 24 hrs; assay type: cell-based, MM1.S
[10] = biological target: T4, Bromodomain-containing protein 2 (Homo sapiens, UniProt P25440); test: Binding affinity to BRD2 BD2 domain (unknown origin)
T4 sequence (P25440 whole entry, the tested form may be a part): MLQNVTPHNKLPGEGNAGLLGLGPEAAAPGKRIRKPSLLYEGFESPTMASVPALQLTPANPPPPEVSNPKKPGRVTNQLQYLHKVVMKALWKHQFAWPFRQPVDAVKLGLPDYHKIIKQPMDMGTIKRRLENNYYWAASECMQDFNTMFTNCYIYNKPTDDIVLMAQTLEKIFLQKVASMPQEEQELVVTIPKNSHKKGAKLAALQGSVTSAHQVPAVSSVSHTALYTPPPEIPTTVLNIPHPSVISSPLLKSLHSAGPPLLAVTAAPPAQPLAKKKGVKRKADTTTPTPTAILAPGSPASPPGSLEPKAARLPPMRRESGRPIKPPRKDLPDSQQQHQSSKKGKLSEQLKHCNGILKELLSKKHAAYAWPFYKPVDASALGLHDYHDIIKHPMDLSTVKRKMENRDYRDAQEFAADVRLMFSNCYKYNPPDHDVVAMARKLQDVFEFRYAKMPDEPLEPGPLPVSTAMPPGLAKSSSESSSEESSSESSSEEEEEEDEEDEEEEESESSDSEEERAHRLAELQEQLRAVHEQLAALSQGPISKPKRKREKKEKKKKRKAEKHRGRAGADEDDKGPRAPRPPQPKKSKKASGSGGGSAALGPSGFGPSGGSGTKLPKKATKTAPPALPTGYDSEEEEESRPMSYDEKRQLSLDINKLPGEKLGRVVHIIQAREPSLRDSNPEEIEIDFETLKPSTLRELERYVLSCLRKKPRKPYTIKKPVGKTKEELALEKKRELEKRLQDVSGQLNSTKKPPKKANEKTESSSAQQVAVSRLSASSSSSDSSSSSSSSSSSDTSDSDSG

[11] = biological target: T5, Bromodomain-containing protein 4 (Homo sapiens, UniProt O60885); test: Binding affinity to BRD4 BD2 domain (unknown origin)
[12] = biological target: T6, Bromodomain-containing protein 3 (Homo sapiens, UniProt Q15059); test: Binding affinity to BRD3 BD2 domain (unknown origin)
T6 sequence (Q15059 whole entry, the tested form may be a part): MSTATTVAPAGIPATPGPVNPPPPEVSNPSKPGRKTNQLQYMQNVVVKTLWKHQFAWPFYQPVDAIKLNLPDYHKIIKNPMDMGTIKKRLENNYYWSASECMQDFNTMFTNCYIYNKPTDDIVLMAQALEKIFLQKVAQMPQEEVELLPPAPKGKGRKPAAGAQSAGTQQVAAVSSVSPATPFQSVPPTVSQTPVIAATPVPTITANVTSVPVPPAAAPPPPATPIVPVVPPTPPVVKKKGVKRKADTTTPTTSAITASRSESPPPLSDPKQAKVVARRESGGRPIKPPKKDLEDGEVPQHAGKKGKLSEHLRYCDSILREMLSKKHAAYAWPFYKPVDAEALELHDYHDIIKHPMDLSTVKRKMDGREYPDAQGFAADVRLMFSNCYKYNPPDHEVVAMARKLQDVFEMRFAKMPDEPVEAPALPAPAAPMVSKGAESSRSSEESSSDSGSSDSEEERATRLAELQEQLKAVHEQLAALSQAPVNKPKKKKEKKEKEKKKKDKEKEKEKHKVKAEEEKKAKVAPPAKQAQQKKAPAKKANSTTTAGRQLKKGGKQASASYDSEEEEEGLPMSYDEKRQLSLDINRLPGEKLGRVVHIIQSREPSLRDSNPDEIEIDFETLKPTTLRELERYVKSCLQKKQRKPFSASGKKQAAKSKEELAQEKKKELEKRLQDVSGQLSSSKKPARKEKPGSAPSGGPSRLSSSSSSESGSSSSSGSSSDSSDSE

[13] = biological target: T6, Bromodomain-containing protein 3; test: Binding affinity to BRD3 BD1 domain (unknown origin)
[14] = biological target: T4, Bromodomain-containing protein 2; test: Binding affinity to BRD2 BD1 domain (unknown origin)
[15] = biological target: T5, Bromodomain-containing protein 4; test: Binding affinity to BRD4 BD1 domain (unknown origin)
KARPAS-422 = test: Antiproliferative activity against human KARPAS-422 cells assessed as growth inhibition after 14 days by Cell Titer-Glo luminescent assay; assay type: functional; details: KARPAS-422, 336 h, time 14 day
[16] = biological target: von Hippel-Lindau disease tumor suppressor/Histone-lysine N-methyltransferase EZH2 (Homo sapiens, UniProt P40337+Q15910, Y641N); test: PROTAC activity at PRC2 catalytic core EZH2/EZH2 Y641N mutant/VHL (unknown origin) measured after 24 hrs by Western blot analysis
[17] = biological target: von Hippel-Lindau disease tumor suppressor/Polycomb protein EED (Homo sapiens, UniProt O75530+P40337); test: PROTAC activity at PRC2 catalytic core EED/VHL (unknown origin) measured after 24 hrs by Western blot analysis; assay type: protein assay
Polycomb protein EED [18] = biological target: T2, Polycomb protein EED; test: Inhibition of PRC2 catalytic core EED (unknown origin)
[19] = biological target: von Hippel-Lindau disease tumor suppressor/Polycomb protein SUZ12 (Homo sapiens, UniProt P40337+Q15022); test: PROTAC activity at PRC2 catalytic core SUZ12/VHL in human DLBCL cells measured after 24 hrs by Western blot analysis; assay type: cell-based
[20] = Inhibition of […] BD5 (unknown origin); set-up: species or system Homo sapiens
[21] = Antiproliferative activity against human NCI-H1568 cells measured after 7 days; assay type: functional, cell-based; details: NCI-H1568, 168 h
[22] = biological target: SWI/SNF-related matrix-associated actin-dependent regulator of chromatin subfamily A member 4 (Homo sapiens, UniProt P51532); test: Inhibition of SMARCA4 BD (unknown origin)
SK-MEL-5 = test: Antiproliferative activity against human SK-MEL-5 cells measured after 7 days; assay type: functional, cell-based; details: SK-MEL-5, 168 h
[23] = biological target: von Hippel-Lindau disease tumor suppressor/SWI/SNF-related matrix-associated actin-dependent regulator of chromatin subfamily A member 4 (Homo sapiens, UniProt P40337+P51532); test: PROTAC activity at SMARCA4/VHL in human MV4-11 cells assessed as degradation protein measured after 18 hrs; assay type: cell-based
MV4-11 = test: Antiproliferative activity against human MV4-11 cells measured after 7 days; assay type: functional, cell-based; details: MV4-11, 168 h
[24] = biological target: T7, von Hippel-Lindau disease tumor suppressor/SWI/SNF-related matrix-associated actin-dependent regulator of chromatin subfamily A member 2 (Homo sapiens, UniProt P40337+P51531); test: PROTAC activity at SMARCA2/VHL in human NCI-H1568 cells assessed as degradation protein measured after 18 hrs; assay type: cell-based
[25] = biological target: SWI/SNF-related matrix-associated actin-dependent regulator of chromatin subfamily A member 2 (Homo sapiens, UniProt P51531); test: Inhibition of SMARCA2 BD (unknown origin)
[26] = biological target: T7, von Hippel-Lindau disease tumor suppressor/SWI/SNF-related matrix-associated actin-dependent regulator of chromatin subfamily A member 2; test: PROTAC activity at SMARCA2/VHL in human MV4-11 cells assessed as degradation protein measured after 18 hrs; assay type: cell-based
[27] = biological target: T8, Protein polybromo-1/von Hippel-Lindau disease tumor suppressor (Homo sapiens, UniProt P40337+Q86U86); test: PROTAC activity at PBRM1/VHL in human NCI-H1568 cells assessed as degradation protein measured after 18 hrs; assay type: cell-based
T8 sequence (Q86U86 whole entry): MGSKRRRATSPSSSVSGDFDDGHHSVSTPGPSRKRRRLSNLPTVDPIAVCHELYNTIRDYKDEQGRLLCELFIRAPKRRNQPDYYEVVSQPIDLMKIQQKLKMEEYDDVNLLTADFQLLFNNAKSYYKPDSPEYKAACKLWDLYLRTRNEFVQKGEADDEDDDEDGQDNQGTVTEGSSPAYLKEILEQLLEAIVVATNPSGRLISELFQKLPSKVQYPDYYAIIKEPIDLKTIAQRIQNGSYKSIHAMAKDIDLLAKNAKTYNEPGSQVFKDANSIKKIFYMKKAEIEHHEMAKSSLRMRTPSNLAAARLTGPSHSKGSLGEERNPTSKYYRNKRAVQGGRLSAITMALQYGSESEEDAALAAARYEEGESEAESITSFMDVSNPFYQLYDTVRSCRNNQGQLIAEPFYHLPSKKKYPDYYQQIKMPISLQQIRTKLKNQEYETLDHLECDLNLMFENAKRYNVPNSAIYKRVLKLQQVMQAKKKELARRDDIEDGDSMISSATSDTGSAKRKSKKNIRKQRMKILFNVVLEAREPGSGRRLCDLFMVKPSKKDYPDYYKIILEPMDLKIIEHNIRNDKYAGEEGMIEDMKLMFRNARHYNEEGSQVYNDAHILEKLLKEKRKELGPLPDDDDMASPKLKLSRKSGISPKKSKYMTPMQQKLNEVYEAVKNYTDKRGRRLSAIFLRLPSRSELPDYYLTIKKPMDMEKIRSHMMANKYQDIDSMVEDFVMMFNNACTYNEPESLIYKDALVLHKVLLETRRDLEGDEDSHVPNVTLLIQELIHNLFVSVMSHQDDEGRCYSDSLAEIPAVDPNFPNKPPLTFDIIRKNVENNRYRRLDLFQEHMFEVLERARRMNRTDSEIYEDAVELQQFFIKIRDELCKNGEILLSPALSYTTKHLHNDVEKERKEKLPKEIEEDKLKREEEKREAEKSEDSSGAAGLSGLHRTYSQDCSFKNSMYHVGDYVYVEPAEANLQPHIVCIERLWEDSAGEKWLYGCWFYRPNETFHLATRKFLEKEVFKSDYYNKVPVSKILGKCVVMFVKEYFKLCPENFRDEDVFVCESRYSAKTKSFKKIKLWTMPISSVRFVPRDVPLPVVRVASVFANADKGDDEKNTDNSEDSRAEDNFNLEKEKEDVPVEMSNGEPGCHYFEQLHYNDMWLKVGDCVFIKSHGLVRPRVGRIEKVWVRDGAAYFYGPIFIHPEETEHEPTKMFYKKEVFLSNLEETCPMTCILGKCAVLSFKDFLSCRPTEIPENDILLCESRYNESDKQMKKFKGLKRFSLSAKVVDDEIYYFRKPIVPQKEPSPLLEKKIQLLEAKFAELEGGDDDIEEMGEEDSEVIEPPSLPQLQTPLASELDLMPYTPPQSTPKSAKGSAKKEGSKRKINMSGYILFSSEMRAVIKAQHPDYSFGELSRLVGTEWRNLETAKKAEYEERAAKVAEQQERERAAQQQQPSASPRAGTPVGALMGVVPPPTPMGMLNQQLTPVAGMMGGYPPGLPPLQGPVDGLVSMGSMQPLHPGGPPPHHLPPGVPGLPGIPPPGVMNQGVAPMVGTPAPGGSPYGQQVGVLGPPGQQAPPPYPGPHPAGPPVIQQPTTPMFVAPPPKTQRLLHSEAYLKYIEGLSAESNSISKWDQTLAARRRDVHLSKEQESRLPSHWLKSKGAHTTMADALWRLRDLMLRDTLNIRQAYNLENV
T8 sequence (P40337 whole entry): as the sequence (P40337 whole entry, looked up) above

[28] = biological target: T8, Protein polybromo-1/von Hippel-Lindau disease tumor suppressor; test: PROTAC activity at PBRM1/VHL in human MV4-11 cells assessed as degradation protein measured after 18 hrs; assay type: cell-based
[29] = biological target: von Hippel-Lindau disease tumor suppressor/Bromodomain-containing protein 2 (Homo sapiens, UniProt P25440+P40337); test: PROTAC activity at BRD2/VHL in human 22Rv1 cells assessed as protein degradation measured after 16 hrs; assay type: cell-based
MM1.S = test: Growth inhibition of human MM1.S cells; assay type: functional
[30] = biological target: T3, Protein cereblon/Protein deacetylase HDAC6; test: PROTAC activity at HDAC6/CRBN in human MM.1S cells; assay type: cell-based, MM1.S
[31] = biological target: Histone-lysine N-methyltransferase EZH1 (Homo sapiens, UniProt Q92800); test: Inhibition of EZH1 methyltransferase activity (unknown origin) assessed `transfer of [3H]methyl group from SAM to substrate by biochemical assay

IC50 [1]: 11.1 nM | IC50 (Histone deacetylase 3): 1.82 nM | IC50 (Histone deacetylase 1): 2.28 nM | IC50 [2]: 35.8 nM | IC50 (Histone deacetylase 8): 60.3 nM | IC50 (Histone deacetylase 2): 3.12 nM
SMILES: COc1ccc(/C=N/NC(=O)CCCCCCCC(=O)NO)cc1

IC50 [3]: 43 nM
SMILES: CCCOc1cccc(Oc2cc3c(cc2NS(=O)(=O)c2ccc(OC)c(OC)c2)n(C)c(=O)n3C)c1

Activity [4]: 72% | Activity [5]: 72%
SMILES: CCCOc1cccc(Oc2cc3c(cc2NS(=O)(=O)c2cccc(C(=O)NCCOCCOCCOCC(=O)N[C@H](C(=O)N4C[C@H](O)C[C@H]4C(=O)NCc4ccc(-c5scnc5C)cc4)C(C)(C)C)c2)n(C)c(=O)n3C)c1

pIC50 [6]: 8.43 | Kd (Polycomb protein EED [7]): 0.245 nM
SMILES: CNC(=O)CCc1ccc(-c2cnc(NCc3c(F)ccc4c3CCO4)n3cnnc23)c(C)n1

IC50 [8]: 120 nM
SMILES: Cc1cc(C)c(CNC(=O)c2cc(-c3ccc(N4CCN(CCNC(=O)CC56CC7CC(CC(C7)C5)C6)CC4)nc3)cc3c2cnn3C(C)C)c(=O)[nH]1

EC50 [9]: 3.2 nM
SMILES: CCCCN(Cc1ccc(C(=O)NO)cc1)C(=O)Nc1ccc(NC(=O)CCCc2cn(CCOCCNc3cccc4c3C(=O)N(C3CCC(=O)NC3=O)C4=O)nn2)cc1 (stereo unspecified)

Kd [10]: 94 nM | Kd [11]: 44 nM | Kd [12]: 39 nM | Kd [13]: 35 nM | Kd [14]: 111 nM | Kd [15]: 75 nM
SMILES: CC(=O)N[C@H](C(=O)N1C[C@H](O)C[C@H]1C(=O)NCc1ccc(-c2scnc2C)cc1)C(C)(C)SCCCCCNC(=O)C[C@@H]1N=C(c2ccc(Cl)cc2)c2c(sc(C)c2C)-n2c(C)nnc21

SMILES: Cc1nc(CCC(=O)NCCOc2ccc(OCC(=O)N[C@@H](C(=O)N3C[C@H](O)C[C@H]3C(=O)NCc3ccc(-c4scnc4C)cc3)C(C)(C)C)cc2)ccc1-c1cnc(NCc2c(F)ccc3c2CCO3)n2cnnc12
GI50 (KARPAS-422): 45 nM | pIC50 [6]: 8.17 | Kd (Polycomb protein EED [7]): 0.955 nM

SMILES: Cc1ncsc1-c1ccc(CNC(=O)[C@@H]2C[C@@H](O)CN2C(=O)[C@@H](NC(=O)CCCNC(=O)c2ccc(-c3cnc(NCc4ccco4)n4cnnc34)cc2)C(C)(C)C)cc1
EC50 [16]: 300 nM | EC50 [17]: 610 nM | IC50 (Polycomb protein EED [18]): 247 nM | EC50 [19]: 590 nM

IC50 [20]: 504 nM | IC50 [22]: 560 nM | IC50 (SK-MEL-5): 77 nM | EC50 [23]: 11 nM | IC50 (MV4-11): 28 nM | EC50 [24]: 3.3 nM | IC50 [25]: 770 nM | EC50 [26]: 6 nM | EC50 [27]: 15.6 nM | EC50 [28]: 32 nM
SMILES: Cc1ncsc1-c1ccc(CNC(=O)[C@H]2C[C@H](O)CN2C(=O)[C@H](NC(=O)C2(F)CC2)C(C)(C)C)c(OCCOc2ccc(CN3CCN(c4cc(-c5ccccc5O)nnc4N)CC3)cc2)c1
IC50 [21]: 68 nM

Kd [10]: 4.7 nM | Kd [14]: 34 nM | EC50 [29]: < 5 nM
SMILES: Cc1ncsc1-c1ccc([C@H](C)NC(=O)[C@@H]2C[C@@H](O)CN2C(=O)C(NC(=O)COCCCOCCNC(=O)C[C@@H]2N=C(c3ccc(Cl)cc3)c3c(sc(C)c3C)-n3c(C)nnc32)C(C)(C)C)cc1 (single isomer, unassigned)

SMILES: Cc1nc(CCC(=O)NCCCCC(=O)N[C@@H](C(=O)N2C[C@H](O)C[C@H]2C(=O)NCc2ccc(-c3scnc3C)cc2)C(C)(C)C)ccc1-c1cnc(NCc2c(F)ccc3c2CCO3)n2cnnc12
GI50 (KARPAS-422): 57 nM | pIC50 [6]: 8.11 | Kd (Polycomb protein EED [7]): 0.537 nM

GI50 (MM1.S): 1210 nM | EC50 [30]: 3.8 nM
SMILES: O=C1CCC(N2C(=O)c3cccc(NCCOCCOCCn4cc(CCCCN(Cc5ccc(C(=O)NO)cc5)C(=O)Nc5ccccc5)nn4)c3C2=O)C(=O)N1 (stereo unspecified)

IC50 [31]: > 2500 nM
SMILES: Cc1cc(C)c(CNC(=O)c2cc(-c3ccc(N4CCN(C(C)C)CC4)nc3)cc3c2cnn3C(C)C)c(=O)[nH]1
